According to patent US11207330B2, “Mirtazapine for use in medication overuse headache based on tension-type headache” (Curatis AG, priority 2019, dated 2021):

Key:
[1] = test system: patients with daily medication overuse headache (MOH) based on tension-type headache; assay: Headache diary AUC (headache duration multiplied with headache intensity) in MOH patients, placebo then mirtazapine; format: in vivo, human; details: for AUC (sum of daily headache duration multiplied with headache intensity): 15 to 30 mg mirtazapine per day for 8 weeks, last four weeks of intake, analgesics allowed; for Reduction of AUC versus placebo: mirtazapine 15 to 30 mg per day vs placebo period, last four weeks
Method: (§1) a) Patients had daily medication overuse headache (MOH) originating from daily analgesic use primarily against tension-type headache as primary headache. They were treated first with placebo for 8 weeks, followed by two weeks of wash-out (taking placebo), and then administration of 15 to 30 mg of mirtazapine per day for 8 weeks. During that time they were allowed to continue taking their analgesics as usual, if they felt it was necessary.
At the same time, they had to keep a diary where they had to write down the frequency and duration of their headache as well as the headache intensity. After completion of the study the diaries were evaluated and the daily recordings of headache duration was multiplied with headache intensity to give the “AUC”, which means “area under the curve”. The results shown in table 1 and table 2 below are from the last four weeks of intake of either placebo or mirtazapine. […] It can be seen that both patients experienced improvement of their headache upon administration of mirtazapine.
FIG. 1 depicts the subjective well-being of patients, i.e. decreased number of headache attacks, shorter headache attacks with lower headache intensity. The lower the count of the y-axis, the better is the subjective well-being. AUC means area under the curve. AUC was calculated as the sum of the daily recordings of headache duration multiplied with headache intensity.

[2] = test system: patients with daily medication overuse headache (MOH) based on tension-type headache; assay: Intake of overused analgesic medication recorded by the same MOH patients; format: in vivo, human; details: for Analgesics Usage: 15 to 30 mg mirtazapine per day for 8 weeks, last four weeks of intake; for Reduction of Analgesics Usage versus placebo: mirtazapine 15 to 30 mg per day vs placebo period, last four weeks
Method: as §1
b) Moreover, the intake of overused analgesic medication was recorded by the same patients and during the time frame as described above in (a). Patient 1 reduced the intake of overused medication by 80% (Table 2). As for patient 2, the reduction is 15%, whereby both patients additionally benefit from improved well-being, i.e. from decreased number of headache attacks, shorter headache attacks with lower headache intensity (see above).

## CN1CCN2c3ncccc3Cc3ccccc3C2C1 (racemic) [Mirtazapine, (RS)-(±)-2-methyl-1,2,3,4,10,14b-hexahydropyrazino[2,1-a]pyrido[2,3-c][2]benzazepine]
[1]; Patient 1
  AUC (sum of daily headache duration multiplied with headache intensity): 420
  Reduction of AUC versus placebo: 62%
[1]; Patient 2
  AUC (sum of daily headache duration multiplied with headache intensity): 895
  Reduction of AUC versus placebo: 34%
[2]; Patient 1
  Analgesics Usage: 2
  Reduction of Analgesics Usage versus placebo: 80%
[2]; Patient 1, listed as mirtazapine
  Reduction of Analgesics Usage versus placebo: 80%
[2]; Patient 2
  Analgesics Usage: 47
  Reduction of Analgesics Usage versus placebo: 15%
[2]; Patient 2, listed as mirtazapine
  Reduction of Analgesics Usage versus placebo: 15%
